From publication PMC12434668 (Journal of Medicinal Chemistry, 2025)
In brackets after ≈: the same amount, converted by molar mass. Several values for one entry are separate records, joined by “and”; a condition that tells them apart may be missing. Equal entries are not always repeated. Where two headings read alike, the source gives them in different places.

Assays:
[1] = Mouse pharmacokinetic analyses (i.v. and oral); assay type: in vivo; conditions: plasma
Method: For PK analysis, mice were administered intravenously or orally with compound formulated in 10% ethanol and 10% Cremophor EL. Compound 13 dosing was also screened with 20% Phosphal IPG, 20% Phosphal MCT, 10% HP-β-CD, and 40% HP-β-CD. Plasma samples were obtained at predefined time points and compound concentrations in plasma were measured by quantitative HPLC–MS/MS using an internal standard. Calibration and quality control samples were prepared using blank plasma from untreated animals. Samples were precipitated with acetonitrile and injected into a HPLC system (Agilent 1200). Separation was performed by gradients of 5 mmol/L ammonium acetate pH 5.0 and acetonitrile with 0.1% formic acid on a Luna C8 reversed-phase column with 2.5 μm particles (Phenomenex). The HPLC was interfaced by ESI operated in positive ionization mode to a triple quadrupole mass spectrometer (6500+ Triple Quad System, SCIEX) operated in multiple reaction monitoring mode. Chromatograms were analyzed with Analyst (SCIEX) and pharmacokinetic parameters were calculated by noncompartmental analysis using proprietary software.

[2] = set-up: method as in earlier work; conditions: ref 66 (number lost in text); cited from earlier work
[3] = system: A427 cell line-derived NSCLC xenograft; assay: Subcutaneous A427 NSCLC xenograft efficacy study; assay type: in vivo; conditions: for tumor regressions (day 28): animals regressing / group
Text: Female BomTac:NMRI-Foxn1nu mice and CB17/Icr-Prkdc(scid)/IcrCrl and were obtained from Taconic Denmark at an age of 6–8 weeks. After arrival of the local animal facility at Boehringer Ingelheim RCV GmbH & Co KG (institutional approval–Amt der Wiener Landesregierung, Magistratsabteilung 58, GZ: 135147/2013/4) mice were allowed to adjust to housing conditions at least for 5 days before the start of the experiment. Mice were group-housed under pathogen-free and controlled environmental conditions and handled according to the institutional, governmental and European Union guidelines (Austrian Animal Protection Laws, GV-SOLAS and FELASA guidelines). Animal studies were approved by the internal ethics committee and the local governmental committee (Amt der Wiener Landesregierung, Magistratsabteilung 58). To establish subcutaneous tumors mice were injected with 5 × 10^6 A427 cells in Matrigel (CB17/Icr-Prkdc(scid)/IcrCrl. Tumor diameters were measured with a caliper three times a week. The volume of each tumor [in mm^3] was calculated according to the formula “tumor volume = length*diameter^2*π/6.” To monitor side effects of treatment, mice were inspected daily for abnormalities and body weight was determined. Animals were sacrificed when the tumors reached a size of 1500 mm^3. Mice were dispatched randomly into treatment groups when the tumor size was 160 mm^3. Tumors were reported as regressing when the tumor volume at a given day was below the tumor volume at treatment start.

[4] = system: caspase 3/7 in K562 cells; assay: Caspase 3/7 induction assay (Caspase-Glo), K562; assay type: cell-based; conditions: compound treatment for 3 h; for EC50: Homo sapiens, K562
Method: (§1) Cells were treated with a 10-point compound titration and incubated at 37 °C for 3 h.

[5] = molecular target: T1, Mcl-1 (Homo sapiens, UniProt Q07820); assay: TR-FRET binding assay (FITC-Bak peptide competition)
T1 construct: Briefly, a previously reported construct was subcloned into an expression vector (pDEST-HisMBP); MBP (from vector pDEST-HisMBP); made in house; host or cells: Escherichia coli BL21 CodonPlus (DE3) RIL
Text: Protein preparation was described previously. Briefly, a previously reported construct was subcloned into an expression vector (pDEST-HisMBP) expressed in Escherichia coli BL21 CodonPlus (DE3) RIL (Stratagene) and purified through nickel-column and size-exclusion chromatography sequentially.
Mixtures containing vehicle without compound served as a negative control, while mixtures containing no protein served as a positive control. […] Two or more repeats were obtained and average K i values are reported.

[6] = Kinetic aqueous solubility; assay type: physicochemical
[7] = system: caspase 3/7 in H929 cells; assay: Caspase 3/7 induction assay (Caspase-Glo), H929; assay type: cell-based; conditions: compound treatment for 3 h; for EC50: Homo sapiens, NCI-H929
Method: as §1

[8] = system: NCI-H929 cells; assay: In vitro proliferation assay (CellTiter-Glo), H929; assay type: cell-based; conditions: Homo sapiens
Method: (§2) NCI-H929, A427, and K562 cell lines were obtained from ATCC. NCI-H929 cells were cultured in RPMI1640 (ATCC-formulated, Catalog No. 30-2001) + 10% fetal calf serum (FCS, GIBCO BRL, Cat. No. 26140) + 0.05 mM mercaptoethanol. A-427 cells were cultured in RPMI1640 (ATCC-formulated, Catalog No. 30-2001) + 10% fetal calf serum (FCS, GIBCO BRL, Cat. No. 26140). K562 cell lines were cultured in Iscove’s Modified Dulbecco Medium (Gibco-formulated, purchased from Thermo-Fisher, Cat. No. 12440-053) + 10% fetal bovine serum (FBS, Sigma-Aldrich, F2442). All cell lines were cultured at 37 °C with 5% CO2 in a humidified incubator and have been regularly tested negatively for mycoplasm contamination.
(§3) Cells were seeded at 750–1500 cells per well (depending on growth kinetics) in 384-well plates (Corning, Catalog No. 3707) or at 3000 cells per well in 96-well plates in the respective growth medium and allowed to settle overnight. Suspension cells were plated immediately before compound addition. Adherent cell lines were incubated overnight at 37 °C in a tissue culture incubator prior to compound addition. Compounds were added in triplicates using an HP D300e Digital Dispenser (Hewlett-Packard) or manually at the concentrations indicated and total volumes were normalized using DMSO backfill, with final DMSO concentration of 0.5%. Control wells were treated with DMSO only. Following incubation for 72 or 96 h, a Cell Titer-Glo assay was conducted following the manufacturer recommendations (Promega, G9243) and luminescence was measured using a Victor X5 (PerkinElmer) or a Cytation 3 (Biotek) plate reader. % Viability was defined as relative luminescence units (RLU) of each well divided by the RLU of cells on day 0. Four parameter sigmoidal dose–response curves were generated and IC50 values were determined using XLFit (IDBS) software (eq 205) or in-house software. Drug combination experiments were performed in 96-well or 384-well format and drug synergy was determined using the BLISS model (PMID: 26171228).

[9] = system: K562 cells; assay: In vitro proliferation counterscreen, Mcl-1 insensitive K562; assay type: cell-based; conditions: for GI50: Homo sapiens, Mcl-1 insensitive K562, top concentration tested 12.5 µM
Method: NCI-H929, A427, and K562 cell lines were obtained from ATCC.
Suspension cells were plated immediately before compound addition. Adherent cell lines were incubated overnight at 37 °C in a tissue culture incubator prior to compound addition. Compounds were added in triplicates using an HP D300e Digital Dispenser (Hewlett-Packard) or manually at the concentrations indicated and total volumes were normalized using DMSO backfill, with final DMSO concentration of 0.5%. Control wells were treated with DMSO only. Following incubation for 72 or 96 h, a Cell Titer-Glo assay was conducted following the manufacturer recommendations (Promega, G9243) and luminescence was measured using a Victor X5 (PerkinElmer) or a Cytation 3 (Biotek) plate reader. % Viability was defined as relative luminescence units (RLU) of each well divided by the RLU of cells on day 0.

[10] = system: caspase 3/7 in A427 cells; assay: Caspase 3/7 induction assay (Caspase-Glo), A427; assay type: cell-based; conditions: compound treatment for 3 h; for EC50: Homo sapiens, A-427
Method: as §1

[11] = system: A427 cells; assay: In vitro proliferation assay (CellTiter-Glo), A427; assay type: cell-based; conditions: Homo sapiens, A-427
Method: as §2, §3

[12] = system: Bcl-2; assay: Selectivity for Mcl-1 over Bcl-2; assay type: binding
[13] = system: Bcl-xL; assay: Selectivity for Mcl-1 over Bcl-xL; assay type: binding
[14] = iv, dosed at 20 mg/kg, read-out: i.v. mouse CL
[15] = iv, supplementary CSV, unit not given (Table 1: 20 mg/kg, 14 and 16 at 10 mg/kg), read-out: CL
[16] = in the presence of 1% fetal bovine serum, average of at least n = 2, read-out: TRFRET, Mcl-1 Ki
[17] = aqueous medium at pH 6.8, pH 6.8
[18] = supplementary CSV, unit inferred
[19] = H929 cell line, average of at least n = 2, triplicate
[20] = A427 cell line, average of at least n = 2, triplicate

T1 sequence (Q07820 whole entry): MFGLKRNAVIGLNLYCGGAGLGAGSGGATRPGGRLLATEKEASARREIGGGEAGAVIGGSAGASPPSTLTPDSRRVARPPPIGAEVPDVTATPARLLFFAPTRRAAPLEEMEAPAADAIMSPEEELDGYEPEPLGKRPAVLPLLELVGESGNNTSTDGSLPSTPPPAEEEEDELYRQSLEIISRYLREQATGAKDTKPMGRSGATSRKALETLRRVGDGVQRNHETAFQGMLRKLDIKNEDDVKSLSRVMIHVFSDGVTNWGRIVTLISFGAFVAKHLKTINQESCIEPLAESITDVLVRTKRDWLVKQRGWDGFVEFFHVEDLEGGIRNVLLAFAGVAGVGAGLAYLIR

COc1c(OCC2CCOCC2)cc(N2C[C@@H](C)n3c(c(CCCOc4cc(C)c(Cl)c(C)c4)c4ccc(Cl)c(-c5c(C)nc(C)nc5C)c43)C2=O)c2c1cc(C(=O)O)n2C [Compound 1]
AUC ([1]; iv, 40 mg/kg q14d i.v., xenograft study, read-out: AUC): 198 µM·h | dog CL [2]: 5.2 mL/min/kg | tumor regressions (day 28) ([3]; 40 mg/kg q14d i.v.): 0/8

COc1cc2c3c(cc(C(=O)O)n3CCCOCc3nn(C)c(C)c3-c3c(Cl)ccc4c(CCCOc5cc(C)c(Cl)c(C)c5)c5n(c34)[C@H](C)CN2C5=O)c1OC [Compound 10, (2^63^4 S a ,1^72^2 R a ,2^4 R)-2^7-Chloro-2^10-(3-(4-chloro-3,5-dimethylphenoxy)propyl)-1^4,1^5-dimethoxy-2^4,3^1,3^5-trimethyl-2^1-oxo-2^1,2^2,2^3,2^4-tetrahydro-1^1 H,3^1 H-5-oxa-2(2,6)-pyrazino[1,2-a]indola-1(7,1)-indola-3(4,3)-pyrazolacyclooctaphane-1^2-carboxylic Acid]
clearance [1, 14]: 6.6 mL/min/kg | clearance [1, 15]: 6.6 mL/min/kg | EC50 [4]: > 3120 nM | K562 Caspase 3/7 fold over vehicle (FoV) [4]: 1.4 fold | Ki [5, 16]: 0.08 ± 0.01 nM | solubility kinetic [6, 17]: 2 µg/mL (≈ 2.45 µM) | EC50 [7]: 9 nM | H929 Caspase 3/7 maximum activity, fold over vehicle (FoV) [7]: 16 fold | GI50 [8, 18]: 20 nM | GI50 [9]: > 9700 nM | EC50 [10]: 11 nM | A427 Caspase 3/7 fold over vehicle (FoV) [10]: 13 fold | GI50 [11, 18]: 48 nM

COc1cc2c3c(cc(C(=O)O)n3CCCOCc3nn(C)cc3-c3c(Cl)ccc4c(CCCOc5cc(C)c(Cl)c(C)c5)c5n(c34)[C@H](C)CN2C5=O)c1OC [Compound 13, (2^63^4 S a ,1^72^2 R a ,2^4 R)-2^7-Chloro-2^10-(3-(4-chloro-3,5-dimethylphenoxy)propyl)-1^4,1^5-dimethoxy-2^4,3^1-dimethyl-2^1-oxo-2^1,2^2,2^3,2^4-tetrahydro-1^1 H,3^1 H-5-oxa-2(2,6)-pyrazino[1,2-a]indola-1(7,1)-indola-3(4,3)-pyrazolacyclooctaphane-1^2-carboxylic Acid]
AUC ([1]; iv, 20 mg/kg, read-out: AUCIV): 60.9 µM·h | AUC ([1]; iv, 30 mg/kg q14d i.v., xenograft study, read-out: AUC): 144 µM·h | AUC ([1]; iv, 60 mg/kg q14d i.v., xenograft study, read-out: AUC): 481 µM·h | clearance [1, 14]: 7.4 mL/min/kg | clearance [1, 15]: 7.4 mL/min/kg | AUC ([1]; oral, 20 mg/kg, read-out: AUCPO): 0.625 µM·h | bioavailability ([1]; po, read-out: oral bioavailability (F)): 1% | selectivity for Mcl-1 over Bcl-2 [12]: > 50,000 fold | EC50 [4]: > 3120 nM | K562 Caspase 3/7 fold over vehicle (FoV) [4]: 1.3 fold | Ki [5, 16]: < 0.08 nM | solubility kinetic [6, 17]: 85 µg/mL (≈ 106 µM) | EC50 [7]: 13 nM | H929 Caspase 3/7 maximum activity, fold over vehicle (FoV) [7]: 16 fold | GI50 [8, 19]: 14 ± 4 nM | selectivity for Mcl-1 over Bcl-xL [13]: > 50,000 fold | tolerability, body weight ([3]; 60 mg/kg q14d i.v.): body weight behaved similarly to the vehicle control cohort | tumor regressions (day 28) ([3]; 60 mg/kg q14d i.v.): 7/8 | tumor outgrowth, study day ([3]; sc, 60 mg/kg, 480 h): ~50 study day | selectivity for Mcl-1-sensitive cell lines over the K562 control ([9]; GI50 ratio): > 900 fold | GI50 [9]: > 12500 nM | EC50 [10]: 7.8 nM | A427 Caspase 3/7 fold over vehicle (FoV) [10]: 16 fold | GI50 [11, 20]: 25 ± 9 nM

COc1cc2c3c(cc(C(=O)O)n3CCCOCc3nn(C)cc3-c3c(Cl)ccc4c(CCCOc5cc(C)c(Cl)c(C)c5)c5n(c34)[C@H](C)CN2C5=O)c1C [Compound 17, (2^63^4 S a ,1^72^2 R a ,2^4 R)-2^7-Chloro-2^10-(3-(4-chloro-3,5-dimethylphenoxy)propyl)-1^5-methoxy-1^4,2^4,3^1-trimethyl-2^1-oxo-2^1,2^2,2^3,2^4-tetrahydro-1^1 H,3^1 H-5-oxa-2(2,6)-pyrazino[1,2-a]indola-1(7,1)-indola-3(4,3)-pyrazolacyclooctaphane-1^2-carboxylic Acid]
clearance [1, 14]: 5.7 mL/min/kg | clearance [1, 15]: 5.7 mL/min/kg | EC50 [4]: > 3120 nM | K562 Caspase 3/7 fold over vehicle (FoV) [4]: 1.3 fold | Ki [5, 16]: < 0.08 nM | Ki ([5]; supplementary CSV, unit inferred, read-out: Ki TRFRET): < 0.02 nM | solubility kinetic ([6]; aqueous medium, pH 6.8, pH 6.8): 39 µg/mL (≈ 49.7 µM) | EC50 [7]: 16 nM | H929 Caspase 3/7 maximum activity, fold over vehicle (FoV) [7]: 16 fold and 16 (16) fold | GI50 [8, 19]: 23 ± 5 nM | GI50 [9]: > 12500 nM | EC50 [10]: 12 nM | A427 Caspase 3/7 fold over vehicle (FoV) [10]: 16 fold | GI50 [11, 20]: 32 ± 7 nM
